# Test results as given in ChEMBL document CHEMBL1201862, “PubChem BioAssay data set” (2004).
# The source made the active and inactive calls.
# What was measured:
# [1] = molecular target: T1, Calpain-2 catalytic subunit (Sus scrofa, UniProt P43367); test: m-calpain protease blockers, concentration series – biochemical, fluorogenic peptide substrate, dose response (AID 1420); format: functional
# T1 sequence (P43367 whole entry): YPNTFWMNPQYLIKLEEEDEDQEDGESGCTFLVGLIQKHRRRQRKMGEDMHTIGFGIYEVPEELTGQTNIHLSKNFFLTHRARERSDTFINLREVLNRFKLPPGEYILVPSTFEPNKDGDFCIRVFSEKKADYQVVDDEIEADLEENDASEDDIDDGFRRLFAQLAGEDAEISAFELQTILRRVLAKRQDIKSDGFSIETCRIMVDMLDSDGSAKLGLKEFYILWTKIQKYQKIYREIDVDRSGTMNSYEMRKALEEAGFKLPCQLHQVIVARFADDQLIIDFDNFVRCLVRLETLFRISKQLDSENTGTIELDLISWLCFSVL
# [2] = NIH3T3 cell viability loss – ATP luminescence, mouse fibroblasts, counter-screen, dose response (AID 2010); format: functional, cell-based;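 note: cells exposed to compound for about 90 hours before reading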
# [3] = Trypanosoma cruzi growth suppression in host cells – NIH3T3 host cells, beta-gal luminescence, confirmation (AID 2044); format: functional, cell-based;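 note: intracellular parasites grown in NIH/3T3 mouse fibroblasts as host cells; luminescent beta-galactosidase reporter signal from transgenic T. cruzi replicating inside host cells; inhibitors lower the luminescence signal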
# [4] = molecular target: T2, Heat shock factor protein 1 (Mus musculus, UniProt P38532); test: enhancement of HSF1-driven luciferase signal – cell-based, NIH3T3, luminescence, dose retest, confirmation (AID 435004); format: functional;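 note: stress induced by proteasome inhibitor MG132 added 30 min after compound; luciferase reporter driven by HSF1 response element in NIH3T3 cells; actives raise luminescence as potentiators of the MG132 stress response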
# T2 sequence (P38532 whole entry): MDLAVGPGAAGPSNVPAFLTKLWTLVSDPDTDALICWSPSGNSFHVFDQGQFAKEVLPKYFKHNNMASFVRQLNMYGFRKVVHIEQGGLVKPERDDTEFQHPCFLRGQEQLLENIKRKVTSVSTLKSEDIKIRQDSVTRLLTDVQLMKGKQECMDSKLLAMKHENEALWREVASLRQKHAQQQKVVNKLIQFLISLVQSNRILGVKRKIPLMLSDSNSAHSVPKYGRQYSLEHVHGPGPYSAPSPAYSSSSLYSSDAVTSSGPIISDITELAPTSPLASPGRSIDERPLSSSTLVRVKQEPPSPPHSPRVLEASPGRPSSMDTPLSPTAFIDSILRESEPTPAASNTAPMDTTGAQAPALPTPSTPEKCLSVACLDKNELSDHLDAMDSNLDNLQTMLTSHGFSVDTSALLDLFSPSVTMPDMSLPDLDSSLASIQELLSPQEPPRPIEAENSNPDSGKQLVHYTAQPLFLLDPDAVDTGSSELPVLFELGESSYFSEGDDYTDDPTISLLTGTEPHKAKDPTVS
# [5] = molecular target: FAD-linked sulfhydryl oxidase ALR (Homo sapiens, UniProt P55789); test: ALR-catalysed DTT oxidation blockers – biochemical, H2O2 detection, luminescence, cherry-pick, dose response (AID 493248)
# Chain of FAD-linked sulfhydryl oxidase ALR (P55789 whole entry): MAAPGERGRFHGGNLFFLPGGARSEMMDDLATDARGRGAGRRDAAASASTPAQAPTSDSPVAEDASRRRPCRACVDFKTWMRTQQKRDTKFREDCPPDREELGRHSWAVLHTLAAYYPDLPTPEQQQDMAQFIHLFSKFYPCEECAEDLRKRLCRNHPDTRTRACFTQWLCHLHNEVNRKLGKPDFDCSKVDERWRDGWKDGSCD
# BJ [6] = test: BJ-TERT fibroblast viability loss – cell-based, RAS-independent, luminescence, dose response (AID 1933); format: functional; settings: Homo sapiens
# BJ [7] = test: BJ-TERT-LT-ST fibroblast viability loss – cell-based, RAS-independent, luminescence, dose response (AID 1935); format: functional; settings: Homo sapiens;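 note: BJ fibroblasts immortalized with TERT plus LT and ST oncogenes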
# [8] = DRD fibroblast viability loss – cell-based, non-viral oncogenic, luminescence, dose response (AID 1934); format: functional; settings: Homo sapiens
# BJ [9] = test: cells; format: functional, cell-based; settings: Homo sapiens
# Nonstructural protein 1 = Nonstructural protein 1 (Influenza A virus, UniProt Q194T2); format: functional, Influenza A virus (A/California/07/2009(H1N1))
# Chain of Nonstructural protein 1 (Q194T2 whole entry): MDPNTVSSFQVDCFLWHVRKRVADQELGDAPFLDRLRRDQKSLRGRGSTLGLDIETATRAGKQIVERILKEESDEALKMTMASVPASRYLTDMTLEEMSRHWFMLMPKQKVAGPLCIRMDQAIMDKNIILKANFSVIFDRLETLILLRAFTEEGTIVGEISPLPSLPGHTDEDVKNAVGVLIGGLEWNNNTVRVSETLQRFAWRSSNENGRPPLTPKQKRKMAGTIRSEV
# Genome polyprotein = Genome polyprotein (dengue virus type 2, UniProt P29990); test: flavivirus cap methylation enzyme inhibition – biochemical, confirmation dose response, primary screen (AID 588689); format: functional
# Chain of Genome polyprotein (P29990 2492-3391 limits assumed): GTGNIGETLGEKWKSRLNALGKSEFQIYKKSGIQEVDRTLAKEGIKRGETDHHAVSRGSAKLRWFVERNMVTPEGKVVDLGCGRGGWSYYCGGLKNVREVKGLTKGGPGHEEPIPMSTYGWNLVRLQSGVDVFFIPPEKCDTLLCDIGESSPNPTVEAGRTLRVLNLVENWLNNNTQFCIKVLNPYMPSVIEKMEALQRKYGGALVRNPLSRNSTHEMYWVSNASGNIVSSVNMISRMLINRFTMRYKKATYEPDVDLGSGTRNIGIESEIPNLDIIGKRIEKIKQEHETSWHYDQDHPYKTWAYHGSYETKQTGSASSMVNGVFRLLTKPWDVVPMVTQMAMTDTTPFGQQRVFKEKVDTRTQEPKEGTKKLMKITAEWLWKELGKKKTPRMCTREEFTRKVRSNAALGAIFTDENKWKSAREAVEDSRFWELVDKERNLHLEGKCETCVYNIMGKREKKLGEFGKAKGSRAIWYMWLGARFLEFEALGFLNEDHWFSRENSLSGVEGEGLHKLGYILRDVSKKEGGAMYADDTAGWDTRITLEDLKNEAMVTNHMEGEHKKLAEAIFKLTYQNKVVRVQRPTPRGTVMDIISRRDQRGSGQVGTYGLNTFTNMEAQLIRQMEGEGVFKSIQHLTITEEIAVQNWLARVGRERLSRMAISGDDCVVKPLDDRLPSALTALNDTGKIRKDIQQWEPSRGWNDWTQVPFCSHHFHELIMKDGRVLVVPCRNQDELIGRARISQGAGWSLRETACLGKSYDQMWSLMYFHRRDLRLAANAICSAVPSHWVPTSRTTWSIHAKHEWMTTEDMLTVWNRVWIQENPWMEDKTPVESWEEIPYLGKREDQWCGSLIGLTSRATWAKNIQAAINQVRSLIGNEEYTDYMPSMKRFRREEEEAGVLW
# [10] = tested on: Streptococcus sp. 'group A'; test: Streptococcus pyogenes SK(-)GAS viability under kanamycin – luminescence, BacTiterGlo, confirmation, counter-screen for streptokinase expression inhibitor project, dose response (AID 1900); format: functional, organism-based
# Streptococcus = test: GAS UMAA2166 growth inhibition – luminescence, BacTiterGlo, counter-screen for streptokinase expression inhibitor project, dose response (AID 1915); format: functional, organism-based;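 note: potency for reduction of bacterial viability or growth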
# [11] = THP-1 cell cytotoxicity, dose response, cytotoxicity control for non-replicating M. tuberculosis project (AID 489025); format: functional
# [12] = molecular target: T3, Microphthalmia-associated transcription factor (Homo sapiens, UniProt O75030); test: reducers of TRPM1 reporter luminescence, concentration series – cell-based, SK-MEL-5, cherry-picked, set 3, MITF inhibitor project, dose response (AID 493073); format: functional;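 note: SK-MEL-5 melanoma cells with luciferase driven by the MITF target TRPM1 promoter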
# T3 sequence (O75030 whole entry): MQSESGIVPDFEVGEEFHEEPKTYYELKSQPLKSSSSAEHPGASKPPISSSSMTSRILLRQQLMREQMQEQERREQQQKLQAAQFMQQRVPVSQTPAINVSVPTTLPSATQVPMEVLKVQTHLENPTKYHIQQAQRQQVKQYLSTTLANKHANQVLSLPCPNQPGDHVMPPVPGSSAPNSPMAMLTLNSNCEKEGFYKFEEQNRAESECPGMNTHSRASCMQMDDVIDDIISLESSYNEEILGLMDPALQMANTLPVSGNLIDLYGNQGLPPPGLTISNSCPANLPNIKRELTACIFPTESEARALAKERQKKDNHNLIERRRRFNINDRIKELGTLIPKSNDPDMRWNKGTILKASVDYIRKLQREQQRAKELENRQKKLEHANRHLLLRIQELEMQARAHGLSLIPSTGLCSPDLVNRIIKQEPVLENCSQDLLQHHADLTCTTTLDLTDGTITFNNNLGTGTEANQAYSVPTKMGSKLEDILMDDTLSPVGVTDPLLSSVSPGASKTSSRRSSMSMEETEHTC
smiles,measurement,setting,value
COc1ccc(Cn2nc(-c3ccccc3)c(N3CCCCC3)cc2=O)cc1,IC50,[1],10.6 µM (not active)
Fc1ccc(Sc2ccccc2CNC2=NCCN2)cc1,EC50,[2],> 60 µM (not active)
same,EC50,[3],1.49 µM (active)
same,EC50,[4],> 260 µM (inactive)
Cn1c(S)nnc1CNS(=O)(=O)c1ccc(Br)cc1,AC50,[5],4.95 µM (active)
Cc1nc(NC(=O)CCl)sc1C(=O)N(C)C,EC50,BJ [6],> 150 µM (not active)
same,EC50,BJ [7],> 150 µM (not active)
same,EC50,[8],28.3 µM (active)
same,EC50,BJ [9],> 150 µM (not active)
CCN1CCN(c2cc(C)c3cc(NC(S)=NCc4cccs4)ccc3n2)CC1,IC50,[1],10 µM (not active)
O=C(O)c1ccccc1C(=O)c1ccc(N2CCOCC2)c([N+](=O)[O-])c1,EC50,BJ [6],> 150 µM (not active)
same,EC50,BJ [7],> 150 µM (not active)
same,EC50,[8],> 150 µM (not active)
same,EC50,BJ [9],> 150 µM (not active)
O=C(COC(=O)c1ccc(S(=O)(=O)NCc2ccco2)cc1)Nc1ccccc1OC(F)F,EC50,[4],> 260 µM (inactive)
COc1ccc(CNC(=O)c2ccc3c(c2)N(C)CCS3)cc1,AC50,[5],15.4 µM (active)
O=C(CSc1ncnc2sc3c(c12)CCCC3)N1CCC(c2noc3ccc(F)cc23)CC1,EC50,BJ [6],30.7 µM (active)
same,EC50,BJ [7],> 150 µM (not active)
same,EC50,[8],> 150 µM (not active)
same,EC50,BJ [9],> 150 µM (not active)
CCC(C(=O)NC1CCCC1)N(Cc1ccco1)C(=O)Cn1nnc(-c2ccc(C)cc2)n1 (stereo unspecified),IC50,[1],16.3 µM (not active)
Cc1oc2c(c1C(=O)Nc1cccc3ccccc13)CCCC2,IC50,[1],> 50 µM (not active)
CC(=O)Nc1cc(C(=O)N2CCN(C)CC2)ccc1S(=O)(=O)c1ccc(C)cc1,IC50,[1],0.796 µM (not active)
O=C1c2ccccc2C(=O)N1CCc1csc(-c2cccc(Cl)c2)n1,IC50,[1],3.44 µM (not active)
COc1ccc(N2CCN(C(=O)c3ccccc3N(C)S(=O)(=O)c3ccccc3)CC2)cc1,AC50,[5],8.08 µM (active)
CCOC(=O)CCNC(=O)Nc1ccc2nc(C)n(Cc3cccc(Cl)c3)c(=O)c2c1,IC50,[1],6.83 µM (not active)
COc1ccc(N2CCN(CCNC(=O)Nc3ccc([N+](=O)[O-])cc3OC)CC2)cc1,AC50,[5],2.24 µM (active)
same,IC50,Nonstructural protein 1,> 100 µM (active)
COc1ccc(Br)cc1/C=C/C(=O)NC(=S)Nc1ccc(Cl)c(C(=O)O)c1,IC50,Genome polyprotein,46.9 µM (active)
same,EC50,[10],56.5 µM (active)
same,EC50,Streptococcus,5.98 µM (active)
CCCN1C(=O)/C(=C\C=C2/Sc3ccccc3N2CC)SC1=S,EC50,BJ [6],> 150 µM (not active)
same,EC50,BJ [7],> 150 µM (inconclusive)
same,EC50,[8],> 150 µM (not active)
same,EC50,BJ [9],> 150 µM (not active)
CCOC(=O)N1CCC(NS(=O)(=O)c2cc3c(cc2Cl)NC(=O)CO3)CC1,CC50,[11],33.4 µM (active)
CC(NC(=O)c1ccc(N(C)C)cc1)C(c1cccs1)N1CCN(C)CC1 (stereo unspecified),AC50,[5],1.24 µM (active)
CCCN(CCC)S(=O)(=O)c1ccc(NC(=O)COc2ccccc2)cc1,IC50,[1],3.3 µM (not active)
COc1ccc(S(=O)(=O)Nc2nc3ccccc3nc2Nc2cccc(C(=O)O)c2)cc1,IC50,Genome polyprotein,34.5 µM (active)
CCc1n[nH]c(C(=O)N2CCCC(Nc3ccc(C(C)C)cc3)C2)c1C (stereo unspecified),AC50,[5],3.61 µM (active)
CC(C)(C)OC(=O)NCCCCCNC(=O)c1[nH]cnc1C(=O)N[C@@H](CCCCNC(=O)OC(C)(C)C)C(=O)OC(C)(C)C,IC50,[1],10.7 µM (not active)
CC(C)(C)C(=O)Cn1ncc(Cl)c(Cl)c1=O,AC50,[12],10.4 µM (active)
O=C(O)Cc1ccc(NCc2ccccc2Cl)cc1,AC50,[5],4.81 µM (active)
Cc1ccc([C@@H]2CC=C(C(=O)O)[C@H](c3ccc(Br)cc3)N2S(=O)(=O)c2ccccc2C)cc1,IC50,Genome polyprotein,34 µM (active)
Cc1ccc(NC2CCCN(C(=O)c3ccnc(Cl)c3)C2)cc1C (stereo unspecified),AC50,[5],3.32 µM (active)
COc1ccc(N/N=C(\C#N)C(=N)N2CCCCC2)cc1,AC50,[5],0.077 µM (active)
